Earlier results on one molecule are cited in US20250295106A1, “HERBICIDAL COMPOSITION” (NOURYON CHEMICALS INTERNATIONAL B.V., priority 2024, published 2025).

The conditions of this data set: acid form, at 25° C.

`O=C(O)CNCP(=O)(O)O` [glyphosate, N-phosphonomethylglycine]: the solubility in water is recorded as 1.16 % by weight.
